The values below come from patent publication US20220411478A1, “CD70 TARGETED CHIMERIC ANTIGEN RECEPTOR (CAR) T CELLS AND USES THEREOF” (priority 2019, published 2022).

For series [1], the system named is Molm13. In words: Aggressive Molm13 AML xenograft, azacitidine with CD70 CAR-T cells.
Procedure: For IHC, murine femurs were washed in PBS and then incubated overnight in 4% paraformaldehyde (PF Thermo-Fisher Scientific AAJ19943K2), followed by an overnight incubation in Cal-ex decalcifier (Fisher Scientific, CS510-1D) and then storage in 70% ethanol until staining. Antibody clones for IHC included the following: CD3 (2GV6, Roche) and CD45 (D9M81, Cell Signaling Technology).
NOD-SCID-γ chain−/− (NSG) (Jackson Laboratories) mice were engrafted with Molm13 cell lines as described for the individual experiments. Mice were maintained at the MGH Center for Cancer Research and all care and conducted experiments were carried out using protocols approved by the Massachusetts General Hospital Institutional Animal Care and Use Committee. […] Cryopreserved CD70 CAR T cells or untransduced T cells were injected intravenously via tail vein at the indicated time points. Tumor burden was monitored via bioluminescence following intraperitoneal injection of D-luciferin substrate solution. AMI spectral imaging was used to perform the image capture and IDL software v. 4.3.1 was used for analysis. Animals were euthanized per the experimental protocol or when they met a priori defined endpoints by IACUC.
A complementary technique was used to verify tumor burden and CAR-T cell expansion. […] To determine if these were cancer cells or infiltrating CAR-T cells, human CD3 was stained.
Series [2] relates to CD70 CAR-T cells. Description: AZA exposure of CD70 CAR-T cells: cell number and viability. It is filed as cell-based, human. The following applies: increasing concentrations of AZA, 24 hours, IL-2.
Series [3] relates to CD70 CAR-T cells. Description: T-cell subset and activation/exhaustion markers under AZA, co-culture with Molm13. The following applies: highest concentrations of AZA.
Series [4] has as its system solid tumor cell lines as well as primary AML blasts. The following applies: hypomethylation of the CD70 promoter; cited from earlier work.
Series [5] concerns Molm13. In words: CD70 and CD33 expression on AML in vivo after AZA (femur aspirates, flow cytometry). On the set-up: species or system NSG mice. The following applies: five days of AZA IP. The text has this: (§1) The following antibody clones targeting their respective antigens were used for flow cytometric analysis where indicated: CD70 (113-16, Biolegend), PeCy7 isotype (MOPC-21, Biolegend), CD69 (FN50, Biolegend), CD107a (H4A3, Biolegend), mouse TER-119 (TER-119, Biolegend), mouse NK-1.1 (PK136, Biolegend), mouse Ly-6G/Ly-6C (Gr-1, Biolegend), mouse CD11b (Biolegend). In general, cells were stained for fifteen minutes in the dark at 4 degrees Celsius and washed in PBS with 2% FBS. When used, DAPI was added to establish live versus dead separation. Trucount tubes (BD Biosciences, 340334) were used for murine blood CAR quantification according to kit instructions. Quantum Simply Cellular beads (Bangs Laboratories, 815) were used to quantify CD70 surface expression.
4.3.1 was used for analysis.
Femur aspirates were analyzed for tumor cells and their CD70 expression via flow cytometry (FIG. 4C). CD70 expression level was compared to isotype controls for each mouse.

Series [6] has as its system OCI-AML3 and Molm13 AML lines. Description: CD70 surface expression after incubation with AZA (flow cytometry), AML lines. The series is classed as cell-based, human.
Excerpt: as §1
Background: Flow cytometry measures light scatter and fluorescence of single cells or particles in a stream.

The test system of series [7] is CD70 CAR-T cells. Description: Plate bound antigen activation assay after AZA incubation. The series is classed as cell-based, human. The following applies: 100 μM AZA (supratherapeutic), 24 hours, washed, plate-bound CD70 overnight. As for the experimental part: After washing in PBS, trD27 or CAR T cells were added for 12 hours followed by flow cytometric staining for CD69.

The subject of series [8] is Molm13. In words: Real-time cytotoxicity assay (impedance) after AZA incubation of CAR-T cells. The following applies: CAR-T cells treated in 1 μM AZA, after 96 hours. The series is classed as cell-based, human. On the procedure:
Cell index was recorded as a measure of impedance using the xCELLigence RTCA SP instrument (ACEA biosciences). […] 125,000 Molm13 cells per well were then plated for 28 hours followed by administration of 125,000 CAR-T cells. Cell index was tracked for 96 hours.

As for `Nc1ncn([C@@H]2O[C@H](CO)[C@@H](O)[C@H]2O)c(=O)n1` [AZA, azacitidine], the “treatment effect / tumor control (BLI)” value with Molm13 [1] (AZA 2.5 mg/kg/day IP day +18 for 5 days, T cells day +22) is recorded as “slight treatment effect”. In addition, in the series with Molm13 [1] (femurs at sacrifice), the “human CD45 staining of bones (immunohistochemistry)” value is “abundant human CD45 staining”. Besides, in the series with CD70 CAR-T cells [2], the “number of CAR-T cells surviving” value is listed as “same number of CAR-T cells survived” and the “viability of CAR-T cells” value was “preserved across all conditions”. Besides, in the series with CD70 CAR-T cells [3], the PD-1 result is listed as “decreases”, the “Tim 3” value is “decreases” and the effector memory phenotypes result is reported as “increase in effector memory phenotypes”. Also, the CD70 surface expression result in series [4] is listed as “increased CD70 surface expression”. Moreover, in the series with Molm13 [5], the “increase in myeloid marker CD33” value is given as “not observed”. For the same compound, the CD70 expression result in series [6] (10 μM AZA, FIG. 15, cell line not named) was “bulk increase in CD70 expression”. The CD70 expression entry in series [6] (incubated with AZA for 20 and 44 hours) is “increase in CD70 expression at higher concentrations”. In addition, the “CAR-T cell activation (CD69) compared to control” value in the series on CD70 CAR-T cells [7] is listed as “significant reduction in activation”. Further, in the series on Molm13 [8], the “CAR-T cytotoxicity vs control” value is on record as “no statistically significant difference from control”.
